According to BindingDB's records for doi:10.1021/jm00207a020 (1978):

Molecular target: Adenylate cyclase type 1 (Rattus norvegicus, UniProt D4A3N4)
Experiment: Inhibition of dopamine-sensitive rat brain adenylyl cyclase activity assessed as cAMP level

Adenylate cyclase type 1, sequence (D4A3N4 whole entry): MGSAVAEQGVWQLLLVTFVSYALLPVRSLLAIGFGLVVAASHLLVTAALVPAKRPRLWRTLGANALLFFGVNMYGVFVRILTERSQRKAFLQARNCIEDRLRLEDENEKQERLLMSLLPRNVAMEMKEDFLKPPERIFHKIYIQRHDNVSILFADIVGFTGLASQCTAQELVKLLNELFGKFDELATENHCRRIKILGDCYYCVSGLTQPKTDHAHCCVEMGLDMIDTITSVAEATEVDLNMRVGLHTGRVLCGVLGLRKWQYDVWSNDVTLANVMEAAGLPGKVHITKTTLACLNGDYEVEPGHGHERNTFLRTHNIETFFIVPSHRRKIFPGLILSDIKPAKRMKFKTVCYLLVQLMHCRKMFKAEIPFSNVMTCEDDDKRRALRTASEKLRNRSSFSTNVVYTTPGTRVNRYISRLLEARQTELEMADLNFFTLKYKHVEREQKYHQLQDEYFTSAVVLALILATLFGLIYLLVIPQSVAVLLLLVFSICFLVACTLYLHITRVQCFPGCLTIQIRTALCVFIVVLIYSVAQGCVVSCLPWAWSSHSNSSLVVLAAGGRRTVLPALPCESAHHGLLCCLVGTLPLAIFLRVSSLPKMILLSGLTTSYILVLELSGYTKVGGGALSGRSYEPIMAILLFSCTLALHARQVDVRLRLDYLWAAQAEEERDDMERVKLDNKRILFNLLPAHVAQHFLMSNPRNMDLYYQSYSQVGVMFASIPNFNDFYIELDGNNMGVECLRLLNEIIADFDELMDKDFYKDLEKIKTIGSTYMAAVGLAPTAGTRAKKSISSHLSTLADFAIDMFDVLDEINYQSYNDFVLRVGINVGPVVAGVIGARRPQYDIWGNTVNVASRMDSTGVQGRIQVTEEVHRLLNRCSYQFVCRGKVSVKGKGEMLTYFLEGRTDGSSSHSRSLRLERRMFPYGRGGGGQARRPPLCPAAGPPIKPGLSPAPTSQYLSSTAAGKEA

Structure (SMILES) | IC50 [nM]
c1ccc(C2=Nc3ccccc3N=C(N3CCC(c4ccccc4)CC3)C2)cc1 | 4.5
CN1CCN(C2=Nc3cc(Cl)ccc3Nc3ccccc32)CC1 [8-Chloro-11-(4-methyl-piperazin-1-yl)-5H-dibenzo[b,e][1,4]diazepine(Clopazine)] | 1.4
